Test results taken from ChEMBL document CHEMBL3991601, “The target landscape of clinical kinase drugs” (Science, 2017).
Activity calls are given as the source filed them. Rule as the data show it, for most assays here: actives have a measured Kd and inactives only a lower limit.

What was measured:
[1] = biological target: T1, RNA cytidine acetyltransferase (Homo sapiens, UniProt Q9H0A0)
T1 sequence (Q9H0A0 whole entry): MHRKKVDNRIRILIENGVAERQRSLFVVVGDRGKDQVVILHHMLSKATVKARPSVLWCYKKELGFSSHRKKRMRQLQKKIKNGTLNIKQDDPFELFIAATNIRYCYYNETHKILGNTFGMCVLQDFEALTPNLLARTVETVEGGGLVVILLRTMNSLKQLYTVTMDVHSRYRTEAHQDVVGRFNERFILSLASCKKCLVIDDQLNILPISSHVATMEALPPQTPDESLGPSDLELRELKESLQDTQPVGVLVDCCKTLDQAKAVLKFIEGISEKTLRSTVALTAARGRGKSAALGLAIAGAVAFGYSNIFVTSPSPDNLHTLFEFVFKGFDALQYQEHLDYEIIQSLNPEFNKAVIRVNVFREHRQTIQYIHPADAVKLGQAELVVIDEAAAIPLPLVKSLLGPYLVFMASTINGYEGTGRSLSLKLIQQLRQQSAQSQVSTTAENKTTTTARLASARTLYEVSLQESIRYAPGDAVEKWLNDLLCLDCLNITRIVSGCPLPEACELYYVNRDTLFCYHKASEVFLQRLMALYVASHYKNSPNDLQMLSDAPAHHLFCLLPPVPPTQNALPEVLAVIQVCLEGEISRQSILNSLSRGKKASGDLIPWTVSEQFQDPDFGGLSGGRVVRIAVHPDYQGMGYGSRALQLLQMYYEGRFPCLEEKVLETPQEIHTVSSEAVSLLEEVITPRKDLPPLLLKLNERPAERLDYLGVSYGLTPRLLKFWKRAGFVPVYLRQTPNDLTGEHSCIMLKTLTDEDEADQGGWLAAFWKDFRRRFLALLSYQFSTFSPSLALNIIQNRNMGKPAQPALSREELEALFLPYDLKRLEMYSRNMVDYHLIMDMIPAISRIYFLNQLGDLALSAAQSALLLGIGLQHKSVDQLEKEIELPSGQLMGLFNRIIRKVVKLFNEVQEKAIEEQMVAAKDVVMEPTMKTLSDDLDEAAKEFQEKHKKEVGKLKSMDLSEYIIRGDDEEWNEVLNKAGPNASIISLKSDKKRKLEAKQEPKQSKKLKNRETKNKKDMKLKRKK

[2] = biological target: Mitogen-activated protein kinase kinase kinase 1 (Homo sapiens, UniProt Q13233)
Chain of Mitogen-activated protein kinase kinase kinase 1 (Q13233 whole entry): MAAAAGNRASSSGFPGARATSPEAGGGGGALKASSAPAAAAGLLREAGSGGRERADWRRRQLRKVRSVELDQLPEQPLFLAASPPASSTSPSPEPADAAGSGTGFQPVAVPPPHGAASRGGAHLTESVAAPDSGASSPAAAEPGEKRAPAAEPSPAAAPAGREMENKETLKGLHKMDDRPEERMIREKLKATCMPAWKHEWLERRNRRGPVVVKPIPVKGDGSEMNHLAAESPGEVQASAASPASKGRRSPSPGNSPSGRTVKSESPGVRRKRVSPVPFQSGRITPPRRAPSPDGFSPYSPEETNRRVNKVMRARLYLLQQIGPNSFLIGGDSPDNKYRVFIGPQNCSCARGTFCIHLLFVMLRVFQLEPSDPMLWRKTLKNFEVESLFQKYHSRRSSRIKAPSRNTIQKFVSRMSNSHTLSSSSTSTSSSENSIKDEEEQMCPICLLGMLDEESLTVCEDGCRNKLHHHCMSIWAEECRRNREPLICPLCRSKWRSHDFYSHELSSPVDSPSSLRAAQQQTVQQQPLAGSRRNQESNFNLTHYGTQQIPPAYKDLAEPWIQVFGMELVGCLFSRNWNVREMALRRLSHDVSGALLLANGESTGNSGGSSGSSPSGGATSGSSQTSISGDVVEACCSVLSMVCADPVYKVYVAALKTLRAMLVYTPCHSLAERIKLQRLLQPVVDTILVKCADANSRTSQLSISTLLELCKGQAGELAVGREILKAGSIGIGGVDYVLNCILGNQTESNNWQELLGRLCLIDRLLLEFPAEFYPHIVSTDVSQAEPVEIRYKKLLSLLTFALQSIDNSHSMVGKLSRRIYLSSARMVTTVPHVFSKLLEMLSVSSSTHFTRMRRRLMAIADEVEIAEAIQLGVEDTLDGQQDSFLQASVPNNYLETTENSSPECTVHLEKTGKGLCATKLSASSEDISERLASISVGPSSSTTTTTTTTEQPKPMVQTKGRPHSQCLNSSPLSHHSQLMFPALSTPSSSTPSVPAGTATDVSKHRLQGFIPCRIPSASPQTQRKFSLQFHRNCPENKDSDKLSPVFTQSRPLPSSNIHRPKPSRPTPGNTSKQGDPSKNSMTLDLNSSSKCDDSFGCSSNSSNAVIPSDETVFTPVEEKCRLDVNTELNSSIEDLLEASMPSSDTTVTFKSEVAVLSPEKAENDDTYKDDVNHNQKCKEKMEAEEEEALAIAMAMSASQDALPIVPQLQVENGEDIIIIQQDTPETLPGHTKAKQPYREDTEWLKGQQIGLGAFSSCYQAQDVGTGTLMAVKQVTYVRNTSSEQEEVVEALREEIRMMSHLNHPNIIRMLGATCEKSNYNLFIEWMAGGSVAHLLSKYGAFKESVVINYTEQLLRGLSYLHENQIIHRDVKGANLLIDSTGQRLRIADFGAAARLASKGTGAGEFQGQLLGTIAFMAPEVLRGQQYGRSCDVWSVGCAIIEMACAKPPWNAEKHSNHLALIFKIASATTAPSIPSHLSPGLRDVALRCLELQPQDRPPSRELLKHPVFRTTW

[3] = biological target: Tyrosine-protein kinase Lyn (Homo sapiens, UniProt P07948)
Chain of Tyrosine-protein kinase Lyn (P07948 whole entry): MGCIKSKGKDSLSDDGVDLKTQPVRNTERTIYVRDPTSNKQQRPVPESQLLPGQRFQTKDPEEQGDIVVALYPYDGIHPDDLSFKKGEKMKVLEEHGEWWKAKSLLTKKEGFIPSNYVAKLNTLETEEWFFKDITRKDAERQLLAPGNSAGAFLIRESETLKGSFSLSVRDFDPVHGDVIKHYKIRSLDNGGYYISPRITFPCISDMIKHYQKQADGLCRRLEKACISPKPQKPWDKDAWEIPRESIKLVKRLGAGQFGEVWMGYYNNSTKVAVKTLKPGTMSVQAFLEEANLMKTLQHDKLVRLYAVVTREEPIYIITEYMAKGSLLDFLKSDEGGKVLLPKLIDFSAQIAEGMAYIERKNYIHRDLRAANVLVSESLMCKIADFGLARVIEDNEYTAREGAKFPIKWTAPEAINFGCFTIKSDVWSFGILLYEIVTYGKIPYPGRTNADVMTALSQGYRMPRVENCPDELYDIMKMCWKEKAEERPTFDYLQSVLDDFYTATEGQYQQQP

[4] = biological target: Dual specificity protein kinase CLK1 (Homo sapiens, UniProt P49759)
Chain of Dual specificity protein kinase CLK1 (P49759 whole entry): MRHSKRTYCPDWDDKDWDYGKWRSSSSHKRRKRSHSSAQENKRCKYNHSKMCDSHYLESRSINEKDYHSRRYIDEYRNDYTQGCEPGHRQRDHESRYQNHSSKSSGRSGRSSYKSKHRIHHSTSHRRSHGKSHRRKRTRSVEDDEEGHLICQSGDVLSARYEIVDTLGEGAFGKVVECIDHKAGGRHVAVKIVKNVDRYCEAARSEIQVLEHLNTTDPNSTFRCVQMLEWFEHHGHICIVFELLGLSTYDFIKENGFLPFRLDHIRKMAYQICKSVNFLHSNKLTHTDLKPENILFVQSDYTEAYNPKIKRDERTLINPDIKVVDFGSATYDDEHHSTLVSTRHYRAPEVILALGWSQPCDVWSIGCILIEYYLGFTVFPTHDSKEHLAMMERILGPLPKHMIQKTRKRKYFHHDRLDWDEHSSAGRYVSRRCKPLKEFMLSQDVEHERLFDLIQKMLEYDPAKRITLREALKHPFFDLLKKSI

[5] = biological target: T2, Exosome RNA helicase MTR4 (Homo sapiens, UniProt P42285)
T2 sequence (P42285 whole entry): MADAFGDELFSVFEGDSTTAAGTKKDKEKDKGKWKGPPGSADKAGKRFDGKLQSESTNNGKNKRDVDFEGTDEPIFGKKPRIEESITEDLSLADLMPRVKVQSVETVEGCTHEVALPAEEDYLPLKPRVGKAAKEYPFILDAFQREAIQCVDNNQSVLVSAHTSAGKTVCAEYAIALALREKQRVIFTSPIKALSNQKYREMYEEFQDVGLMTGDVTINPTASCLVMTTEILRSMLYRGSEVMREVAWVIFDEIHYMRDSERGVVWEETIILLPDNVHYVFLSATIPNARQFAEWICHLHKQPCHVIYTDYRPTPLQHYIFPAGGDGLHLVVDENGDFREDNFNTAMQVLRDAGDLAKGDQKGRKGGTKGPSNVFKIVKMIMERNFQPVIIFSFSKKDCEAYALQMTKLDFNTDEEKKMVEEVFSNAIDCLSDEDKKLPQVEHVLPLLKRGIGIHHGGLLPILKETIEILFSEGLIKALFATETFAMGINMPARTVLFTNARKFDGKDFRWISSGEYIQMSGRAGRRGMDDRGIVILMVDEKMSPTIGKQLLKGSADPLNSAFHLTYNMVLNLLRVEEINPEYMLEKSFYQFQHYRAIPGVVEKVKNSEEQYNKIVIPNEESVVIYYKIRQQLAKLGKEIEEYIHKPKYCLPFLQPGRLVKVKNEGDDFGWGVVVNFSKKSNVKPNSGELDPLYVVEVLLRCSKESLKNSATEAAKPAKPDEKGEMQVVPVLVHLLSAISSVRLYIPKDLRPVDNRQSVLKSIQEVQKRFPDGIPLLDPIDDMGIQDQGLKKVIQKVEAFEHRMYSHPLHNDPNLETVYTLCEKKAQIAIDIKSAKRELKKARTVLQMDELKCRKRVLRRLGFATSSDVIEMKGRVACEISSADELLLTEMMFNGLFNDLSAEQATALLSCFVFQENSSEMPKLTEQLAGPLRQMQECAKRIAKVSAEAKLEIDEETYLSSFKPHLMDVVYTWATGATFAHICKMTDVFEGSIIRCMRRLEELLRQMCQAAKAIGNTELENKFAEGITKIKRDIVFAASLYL

[6] = biological target: 5'-AMP-activated protein kinase catalytic subunit alpha-1 (Homo sapiens, UniProt Q13131)
Chain of 5'-AMP-activated protein kinase catalytic subunit alpha-1 (Q13131 whole entry): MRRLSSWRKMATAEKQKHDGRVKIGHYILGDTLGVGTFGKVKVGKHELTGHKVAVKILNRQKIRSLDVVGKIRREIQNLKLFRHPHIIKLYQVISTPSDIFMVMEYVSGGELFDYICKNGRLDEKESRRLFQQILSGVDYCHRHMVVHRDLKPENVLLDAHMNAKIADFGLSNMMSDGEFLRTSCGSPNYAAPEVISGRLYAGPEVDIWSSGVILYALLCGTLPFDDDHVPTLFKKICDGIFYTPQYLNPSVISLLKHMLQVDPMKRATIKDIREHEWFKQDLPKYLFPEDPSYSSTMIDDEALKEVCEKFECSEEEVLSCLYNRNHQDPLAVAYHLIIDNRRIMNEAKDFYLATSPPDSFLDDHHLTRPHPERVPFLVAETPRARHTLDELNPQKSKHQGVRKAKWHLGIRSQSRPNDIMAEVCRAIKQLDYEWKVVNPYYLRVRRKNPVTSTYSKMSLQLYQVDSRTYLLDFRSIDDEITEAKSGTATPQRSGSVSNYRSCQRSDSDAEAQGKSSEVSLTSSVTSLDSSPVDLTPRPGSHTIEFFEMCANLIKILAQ

[7] = biological target: Mitogen-activated protein kinase 1 (Homo sapiens, UniProt P28482)
Chain of Mitogen-activated protein kinase 1 (P28482 whole entry): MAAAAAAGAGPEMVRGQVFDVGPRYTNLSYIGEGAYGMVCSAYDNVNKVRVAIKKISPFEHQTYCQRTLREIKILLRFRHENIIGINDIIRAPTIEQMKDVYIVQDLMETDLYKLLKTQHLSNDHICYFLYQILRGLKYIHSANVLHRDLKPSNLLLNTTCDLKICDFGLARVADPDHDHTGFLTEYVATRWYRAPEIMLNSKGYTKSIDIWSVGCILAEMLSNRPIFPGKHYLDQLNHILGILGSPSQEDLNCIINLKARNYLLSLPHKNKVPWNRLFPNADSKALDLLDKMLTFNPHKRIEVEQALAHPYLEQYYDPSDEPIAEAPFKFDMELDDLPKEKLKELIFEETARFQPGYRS

[8] = biological target: Mitogen-activated protein kinase kinase kinase kinase 4 (Homo sapiens, UniProt O95819)
Chain of Mitogen-activated protein kinase kinase kinase kinase 4 (O95819 whole entry): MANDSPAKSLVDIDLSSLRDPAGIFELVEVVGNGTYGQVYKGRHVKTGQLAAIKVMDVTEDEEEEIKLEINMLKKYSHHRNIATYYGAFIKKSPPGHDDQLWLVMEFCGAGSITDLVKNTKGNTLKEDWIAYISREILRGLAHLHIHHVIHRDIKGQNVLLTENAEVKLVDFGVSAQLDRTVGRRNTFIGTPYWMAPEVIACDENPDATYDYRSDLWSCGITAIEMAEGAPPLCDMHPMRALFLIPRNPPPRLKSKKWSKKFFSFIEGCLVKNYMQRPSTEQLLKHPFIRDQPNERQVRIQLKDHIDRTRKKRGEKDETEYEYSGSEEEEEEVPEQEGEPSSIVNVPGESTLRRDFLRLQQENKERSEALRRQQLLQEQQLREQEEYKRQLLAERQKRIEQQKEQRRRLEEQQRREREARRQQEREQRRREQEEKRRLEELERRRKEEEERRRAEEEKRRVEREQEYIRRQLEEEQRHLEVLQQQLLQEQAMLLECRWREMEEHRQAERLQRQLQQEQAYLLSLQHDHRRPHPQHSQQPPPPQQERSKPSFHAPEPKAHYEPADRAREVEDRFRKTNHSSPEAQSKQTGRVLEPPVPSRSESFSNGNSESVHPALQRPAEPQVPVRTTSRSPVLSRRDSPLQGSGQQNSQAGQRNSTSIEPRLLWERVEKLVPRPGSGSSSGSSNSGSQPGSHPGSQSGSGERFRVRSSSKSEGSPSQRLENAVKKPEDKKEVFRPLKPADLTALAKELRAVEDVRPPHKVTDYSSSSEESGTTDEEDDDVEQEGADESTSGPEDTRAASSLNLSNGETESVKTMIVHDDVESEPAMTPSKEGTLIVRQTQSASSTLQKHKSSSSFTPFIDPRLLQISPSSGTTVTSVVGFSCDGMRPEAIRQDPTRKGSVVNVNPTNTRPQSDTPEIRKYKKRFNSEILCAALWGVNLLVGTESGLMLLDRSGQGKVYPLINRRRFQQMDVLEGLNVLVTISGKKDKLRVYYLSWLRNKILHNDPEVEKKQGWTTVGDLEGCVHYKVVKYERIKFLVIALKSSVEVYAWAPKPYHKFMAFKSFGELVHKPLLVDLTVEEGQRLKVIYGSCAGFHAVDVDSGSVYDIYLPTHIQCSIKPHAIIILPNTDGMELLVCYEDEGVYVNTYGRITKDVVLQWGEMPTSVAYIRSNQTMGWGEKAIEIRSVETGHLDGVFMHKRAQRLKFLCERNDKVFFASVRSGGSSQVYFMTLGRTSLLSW
Also: in the data inactive means no Kd found up to 30 µM.

Kd [1]	Kd [2]	Kd [3]	Kd [4]	Kd [5]	Kd [6]	Kd [7]	Kd [8]	SMILES
> 30 µM (inactive)	> 30 µM (inactive)	> 30 µM (inactive)	> 30 µM (inactive)	> 30 µM (inactive)	> 30 µM (inactive)	> 30 µM (inactive)	> 30 µM (inactive)	C[C@@H](Nc1cc(F)cc(F)c1)c1cc(C(=O)N(C)C)cc2c(=O)cc(N3CCOCC3)oc12 [AZD-8186]
> 30 µM (inactive)	> 30 µM (inactive)	> 30 µM (inactive)	> 30 µM (inactive)	> 30 µM (inactive)	> 30 µM (inactive)	> 30 µM (inactive)	> 30 µM (inactive)	Cc1cc([C@@H](C)Nc2ccccc2C(=O)O)c2nc(N3CCOCC3)cc(=O)n2c1 [AZD-6482]
> 30 µM (inactive)	> 30 µM (inactive)	> 30 µM (inactive)	> 30 µM (inactive)	> 30 µM (inactive)	> 30 µM (inactive)	> 30 µM (inactive)	> 30 µM (inactive)	O=C(Nc1ccc(-c2ccnc(Nc3ccc(N4CCOCC4)cc3)n2)cc1)C1CCCN1 (stereo not given) [XL-019]
> 30 µM (inactive)	> 30 µM (inactive)	> 30 µM (inactive)		> 30 µM (inactive)	> 30 µM (inactive)			Cc1cc(Nc2cc(N3CCN(C)CC3)nc(/C=C/c3ccccc3)n2)n[nH]1 [ENMD-2076]
> 30 µM (inactive)				> 30 µM (inactive)				CCn1c(-c2nonc2N)nc2c(C#CC(C)(C)O)ncc(OC[C@H]3CCCNC3)c21 [GSK-690693]
> 30 µM (inactive)	8.16 µM (active)		0.586 µM (active)	> 30 µM (inactive)				Cc1nc(N)sc1-c1ccnc(Nc2ccc(N3CCOCC3)cc2)n1 [CYC-116]
> 30 µM (inactive)	> 30 µM (inactive)	> 30 µM (inactive)	> 30 µM (inactive)	> 30 µM (inactive)		> 30 µM (inactive)		OCCn1cc(-c2cnc3nnn(Cc4ccc5ncccc5c4)c3n2)cn1 [PF-04217903]

Further lines, the compound ahead of its results:

SMILES	Kd [1]	Kd [2]	Kd [3]	Kd [4]	Kd [5]	Kd [6]	Kd [7]	Kd [8]
CCS(=O)(=O)N1CC(CC#N)(n2cc(-c3ncnc4[nH]ccc34)cn2)C1 [BARICITINIB]	> 30 µM (inactive)	1.89 µM (active)	> 30 µM (inactive)	0.778 µM	> 30 µM (inactive)	> 30 µM (inactive)	> 30 µM (inactive)	> 30 µM (inactive)
CN1N=C(N)c2cn([C@@H]3O[C@H](COP(=O)(O)O)[C@@H](O)[C@H]3O)c3ncnc1c23 [TRICIRIBINE PHOSPHATE]	> 30 µM (inactive)	> 30 µM (inactive)	> 30 µM (inactive)		> 30 µM (inactive)	> 30 µM (inactive)	> 30 µM (inactive)	> 30 µM (inactive)
CNC(=O)c1cc(Oc2ccc(NC(=O)Nc3ccc(Cl)c(C(F)(F)F)c3)c(F)c2)ccn1 [REGORAFENIB]	> 30 µM (inactive)	0.465 µM (active)	> 30 µM (inactive)	2.11 µM (active)	> 30 µM (inactive)	> 30 µM (inactive)	> 30 µM (inactive)	> 30 µM (inactive)
CNS(=O)(=O)Nc1nccc(Cc2c(C)c3ccc(Oc4ncccn4)cc3oc2=O)c1F [AVUTOMETINIB]	> 30 µM (inactive)	> 30 µM (inactive)	> 30 µM (inactive)	> 30 µM (inactive)	> 30 µM (inactive)	> 30 µM (inactive)	> 30 µM (inactive)	> 30 µM (inactive)
CCCS(=O)(=O)Nc1ccc(F)c(C(=O)c2c[nH]c3ncc(-c4ccc(Cl)cc4)cc23)c1F [VEMURAFENIB]	> 30 µM (inactive)	> 30 µM (inactive)	> 30 µM (inactive)	> 30 µM (inactive)	> 30 µM (inactive)	> 30 µM (inactive)	> 30 µM (inactive)	> 30 µM (inactive)
COc1cc2nccc(Oc3ccc(NC(=O)NC4CC4)c(Cl)c3)c2cc1C(N)=O [LENVATINIB]	> 30 µM (inactive)	> 30 µM (inactive)	> 30 µM (inactive)	> 30 µM (inactive)	> 30 µM (inactive)	> 30 µM (inactive)	> 30 µM (inactive)	> 30 µM (inactive)
Cc1cc2c(F)c(Oc3ncnn4cc(OC[C@@H](C)OC(=O)[C@H](C)N)c(C)c34)ccc2[nH]1 [BRIVANIB ALANINATE]	> 30 µM (inactive)	> 30 µM (inactive)	> 30 µM (inactive)	> 30 µM (inactive)	> 30 µM (inactive)	> 30 µM (inactive)	> 30 µM (inactive)	46.2 µM (active)
Nc1nc(N)c2nc(-c3cccc(O)c3)c(-c3cccc(O)c3)nc2n1 [TG100-115]	> 30 µM (inactive)				> 30 µM (inactive)			
O=C(Nc1cccc(Cl)c1)Nc1ncc(CCNc2ncnc3ccsc23)s1 [SNS-314]	> 30 µM (inactive)		> 30 µM (inactive)	> 30 µM (inactive)	> 30 µM (inactive)			
CN1CCN(c2ccc3nc(-c4c(N)c5c(F)cccc5[nH]c4=O)[nH]c3c2)CC1 [DOVITINIB]	> 30 µM (inactive)				> 30 µM (inactive)			
COCCNCc1ccc(-c2cc3nccc(Oc4ccc(NC(=S)NC(=O)Cc5ccc(F)cc5)cc4F)c3s2)nc1 [GLESATINIB]	> 30 µM (inactive)	> 30 µM (inactive)		> 30 µM (inactive)	> 30 µM (inactive)	> 30 µM (inactive)	> 30 µM (inactive)	0.6 µM
N[C@@H]1CCCN(c2c(/C=C3\SC(=O)NC3=O)cccc2-c2ccccc2)C1	> 30 µM (inactive)	> 30 µM (inactive)	> 30 µM (inactive)		> 30 µM (inactive)	> 30 µM (inactive)	> 30 µM (inactive)	> 30 µM (inactive)
Cn1ncc(Cl)c1-c1cc(C(=O)N[C@H](CN)Cc2cccc(F)c2)sc1Cl [AFURESERTIB]	> 30 µM (inactive)	> 30 µM (inactive)	> 30 µM (inactive)		> 30 µM (inactive)	> 30 µM (inactive)	> 30 µM (inactive)	> 30 µM (inactive)
CCc1cnn2c(NCc3ccc[n+]([O-])c3)cc(N3CCCC[C@H]3CCO)nc12 [DINACICLIB]	> 30 µM (inactive)	> 30 µM (inactive)	> 30 µM (inactive)	0.714 µM (active)	> 30 µM (inactive)		> 30 µM (inactive)	
Cc1cn(-c2cc(NC(=O)c3ccc(C)c(Nc4nccc(-c5cccnc5)n4)c3)cc(C(F)(F)F)c2)cn1 [NILOTINIB]	> 30 µM (inactive)				> 30 µM (inactive)			
CC(C)Nc1cc(-c2c[nH]c(C(=O)N[C@H](CO)c3cccc(Cl)c3)c2)c(Cl)cn1 [ULIXERTINIB]	> 30 µM (inactive)	> 30 µM (inactive)	> 30 µM (inactive)	> 30 µM (inactive)	> 30 µM (inactive)	> 30 µM (inactive)		> 30 µM (inactive)
